Measurements published in PubChem BioAssay (NCI).
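Following 48 hours of exposure in 96-well plates, responses at five concentrations were used to interpolate endpoints linearly. GI50 is the concentration that inhibits growth by half. At the TGI there is no net growth.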

Tests used:
Experiment in all cases: NCI tumour cell line growth inhibition, 48 h
[1] = test system: UO-31 renal
[2] = test system: UACC-257 melanoma
[3] = test system: SNB-19 CNS
[4] = test system: NCI-H226 lung
[5] = test system: MOLT-4 leukemia
[6] = test system: SN12C renal
[7] = test system: OVCAR-8 ovarian
[8] = test system: UACC-62 melanoma
[9] = test system: HCT-116 colon
[10] = test system: SK-MEL-28 melanoma
[11] = test system: SNB-75 CNS
[12] = test system: MCF7 breast
[13] = test system: NCI-H522 lung

SMILES | TGI [1] | TGI [2] | TGI [3] | TGI [4] | TGI [5] | TGI [6] | TGI [7] | TGI [8] | TGI [9] | TGI [10] | TGI [11] | TGI [12] | TGI [13] | GI50 [4] | GI50 [6] | GI50 [7] | GI50 [13]
CCOC(=O)Cc1nc2nn(Cc3ccccc3)cc2c(=O)[nH]1 | > 100 µM | > 100 µM | > 100 µM | > 100 µM | > 100 µM | > 100 µM | > 100 µM | > 100 µM | > 100 µM | > 100 µM | > 100 µM | > 100 µM | – | – | – | – | –
CCOC(=O)C1=C(C)C2C3C(=O)NC(=O)C3C1(C)C1C(=O)NC(=O)C21 (stereo unspecified) | > 100 µM | > 100 µM | > 100 µM | > 100 µM | > 100 µM | > 100 µM | > 100 µM | > 100 µM | > 100 µM | > 100 µM | > 100 µM | – | – | – | – | – | –
Clc1ccc2c(Cl)ncnc2c1I | > 100 µM | > 100 µM | > 100 µM | 93.3 µM | 61.4 µM | > 100 µM | > 100 µM | > 100 µM | > 100 µM | > 100 µM | 75 µM | – | 56.6 µM | – | – | – | –
CCOC(=O)C(NC(=O)NCc1ccc(F)cc1)C(F)(F)F (stereo unspecified) | > 100 µM | > 100 µM | > 100 µM | – | – | > 100 µM | > 100 µM | – | > 100 µM | > 100 µM | > 100 µM | – | – | – | – | – | –
NC(=S)Nc1nnc(-c2ccc(-c3nnc(NC(N)=S)o3)cc2)o1 | > 100 µM | > 100 µM | > 100 µM | > 100 µM | > 100 µM | > 100 µM | > 100 µM | > 100 µM | > 100 µM | > 100 µM | > 100 µM | – | > 100 µM | – | – | – | –
CC(=O)/C(=C/N1C(=O)CC(=O)NC1=S)C(=O)Nc1ccccc1C | > 100 µM | > 100 µM | > 100 µM | > 100 µM | > 100 µM | > 100 µM | > 100 µM | 83.8 µM | > 100 µM | > 100 µM | > 100 µM | > 100 µM | – | – | – | – | –
CC(C)(C)c1cc(N=NC(=S)NCc2ccccc2)cc(C(C)(C)C)c1O | > 100 µM | > 100 µM | > 100 µM | > 100 µM | > 100 µM | > 100 µM | > 100 µM | > 100 µM | > 100 µM | > 100 µM | 99.6 µM | – | – | – | – | – | –
COc1cc(/C=C2\CCC(C)c3c2nc(N)c(C#N)c3-c2cc(OC)c(OC)c(OC)c2)cc(OC)c1OC (stereo unspecified) | – | > 100 µM | > 100 µM | – | > 100 µM | > 100 µM | 40.3 µM | > 100 µM | > 100 µM | > 100 µM | 15 µM | > 100 µM | – | – | – | – | –
CC1C(c2ccccc2)=CCON1c1ccccc1 (stereo unspecified) | > 100 µM | > 100 µM | > 100 µM | > 100 µM | > 100 µM | > 100 µM | > 100 µM | > 100 µM | > 100 µM | > 100 µM | > 100 µM | – | > 100 µM | – | – | – | –
BrC12C3C4C5C(C(C43)C13OCCO3)C52 (stereo unspecified) | > 100 µM | > 100 µM | > 100 µM | – | > 100 µM | – | > 100 µM | – | > 100 µM | > 100 µM | > 100 µM | – | > 100 µM | – | – | – | –
C=CCNC(NCC=C)=C(C(Cl)=C(Cl)Cl)[N+](=O)[O-] | > 100 µM | > 100 µM | > 100 µM | > 100 µM | 87.9 µM | > 100 µM | 31.2 µM | > 100 µM | > 100 µM | > 100 µM | > 100 µM | > 100 µM | – | – | – | – | –
Cc1cccc(NC(=O)CSc2nnc(Cc3ccccc3)o2)c1 | > 100 µM | > 100 µM | > 100 µM | > 100 µM | > 100 µM | > 100 µM | > 100 µM | > 100 µM | > 100 µM | > 100 µM | > 100 µM | – | > 100 µM | – | – | – | –
N=c1oc2cc(O)c(O)cc2cc1C(N)=O | > 100 µM | > 100 µM | > 100 µM | > 100 µM | > 100 µM | > 100 µM | > 100 µM | > 100 µM | > 100 µM | > 100 µM | 96.3 µM | – | > 100 µM | – | – | – | –
O=C(CSc1nnc(-c2ccc(N=Cc3ccc(Cl)cc3)cc2)o1)Nc1ccccc1 | > 100 µM | > 100 µM | > 100 µM | > 100 µM | > 100 µM | > 100 µM | > 100 µM | > 100 µM | 31.1 µM | > 100 µM | > 100 µM | – | 35.5 µM | – | – | – | –
c1ccc2c(NCCCCCCCCNc3cccc4ccccc34)cccc2c1 | > 100 µM | 51.7 µM | > 100 µM | > 100 µM | 39.9 µM | > 100 µM | 54.8 µM | 45.9 µM | 40 µM | 40.3 µM | 83.2 µM | – | 36 µM | – | – | – | –
Cc1c(C(=O)Nc2ccc(Cl)c(C(F)(F)F)c2)oc2cc(O)ccc2/c1=N\NC(N)=S | > 100 µM | > 100 µM | > 100 µM | > 100 µM | > 100 µM | > 100 µM | > 100 µM | > 100 µM | > 100 µM | > 100 µM | > 100 µM | – | > 100 µM | – | – | – | –
Cc1cc2c(cc1Cl)SC(NNC(=O)c1ccncc1)=NS2(=O)=O | – | > 10 µM | > 10 µM | > 10 µM | > 10 µM | > 10 µM | > 10 µM | > 10 µM | > 10 µM | > 10 µM | > 10 µM | – | > 10 µM | – | – | – | –
Cc1nc2c(s/c(=N\N)n2-c2ccccc2)c(=O)[nH]1 | > 100 µM | > 100 µM | > 100 µM | > 100 µM | > 100 µM | > 100 µM | > 100 µM | > 100 µM | > 100 µM | > 100 µM | > 100 µM | – | > 100 µM | – | – | – | –
CO[C@H]1C[C@@H]2CC[C@@H](C)[C@@](O)(O2)C(=O)C(=O)N2CCCC[C@H]2C(=O)O[C@H]([C@H](C)C[C@@H]2CC[C@@H](OC(=O)C(C)(CO)CO)[C@H](OC)C2)CC(=O)[C@H](C)/C=C(\C)[C@@H](O)[C@@H](OC)C(=O)[C@H](C)C[C@H](C)/C=C/C=C/C=C/1C | > 100 µM | 51.5 µM | > 100 µM | 22.1 µM | > 100 µM | > 71.3 µM | > 86.4 µM | 29.7 µM | > 100 µM | > 100 µM | 24.4 µM | – | > 49.6 µM | 0.0187 µM | 0.497 µM | < 0.0143 µM | 0.121 µM
COc1ccc2c(c1)CC1NC2Cc2ccccc21 (stereo unspecified) | > 100 µM | > 100 µM | – | – | > 100 µM | – | > 100 µM | > 100 µM | > 100 µM | > 100 µM | > 100 µM | – | > 100 µM | – | – | – | –
CC[N+](CC)(CC)Cc1cn(S(=O)(=O)c2ccccc2)c2ccccc12 | > 100 µM | > 100 µM | > 100 µM | > 100 µM | > 100 µM | – | > 100 µM | > 100 µM | > 100 µM | > 100 µM | > 100 µM | – | > 100 µM | – | – | – | –
O=C1OC(c2ccccc2)(c2ccccc2)CC1CN1CCOCC1 (stereo unspecified) | 99.4 µM | 20.9 µM | > 100 µM | – | 65.4 µM | 25.1 µM | > 100 µM | > 100 µM | 25.3 µM | 32.9 µM | 49.1 µM | – | 22.8 µM | – | – | – | –
N#CC(c1ccc(Cl)cc1)c1cccc(Cl)n1 (stereo unspecified) | > 100 µM | > 100 µM | > 100 µM | > 100 µM | > 100 µM | > 100 µM | > 100 µM | > 100 µM | – | > 100 µM | 84.3 µM | – | > 100 µM | – | – | – | –
CN(C)c1cccc(-c2cc(=O)c3cc4c(cc3[nH]2)OCO4)c1 | > 100 µM | > 100 µM | > 57.6 µM | 1.32 µM | > 100 µM | > 100 µM | 3.65 µM | > 100 µM | – | > 100 µM | – | – | 0.275 µM | – | – | – | –
CC/C(=C/OC)P1(=O)OC(C)(C)CN1C(C)(C)C (stereo unspecified) | > 100 µM | > 100 µM | > 100 µM | > 100 µM | – | – | > 100 µM | > 100 µM | > 100 µM | – | – | > 100 µM | – | – | – | – | –
O=C(/C=C(\O)C(=O)O)/C=C(\O)c1ccccc1Cl | > 100 µM | > 100 µM | > 100 µM | > 100 µM | > 100 µM | > 100 µM | > 100 µM | > 100 µM | > 100 µM | > 100 µM | > 100 µM | – | > 100 µM | – | – | – | –
CC(C)C1=CC(=O)C(C)(C2=NC(C)(C)CO2)c2ccccc21 (stereo unspecified) | > 100 µM | > 100 µM | > 100 µM | > 100 µM | > 100 µM | > 100 µM | > 100 µM | > 100 µM | > 100 µM | > 100 µM | > 100 µM | – | > 100 µM | – | – | – | –
O=C(/C=C\c1cccc2ccccc12)c1ccc(Br)cc1 | 42.5 µM | 51.9 µM | 61.1 µM | > 100 µM | 82.2 µM | > 100 µM | 33 µM | 29.3 µM | 30.3 µM | 27.7 µM | 56.3 µM | – | 35.3 µM | – | – | – | –
CCOC(=O)c1c(-c2ccc(Cl)cc2)c(C#N)c(=S)n(C2OC(CO)C(O)C(O)C2O)c1-c1ccccc1 (stereo unspecified) | > 100 µM | 62.9 µM | 52.4 µM | – | 46.7 µM | > 100 µM | – | 38.2 µM | 35.3 µM | 38.7 µM | 87.3 µM | 50.5 µM | – | – | – | – | –
